Experimental data published in patent publication US20250295625A1, “AGENT FOR PROMOTING ODONTOBLAST PROPAGATION AND DIFFERENTIATION” (SUN MEDICAL CO., LTD., priority 2019, published 2025).

Columns and labels:
Type in all cases: cell-based
[1] = tested on: MDPC-23 cell (rat dental papilla-derived cell), a rat odontoblast-like cell line; experiment: Odontoblast proliferation test (CCK-8 assay); conditions: FIG. 4
Method: A Dulbecco's modified Eagle's medium (DMEM) added with 5% by mass of fetal bovine serum (FBS) was prepared. Then, an MDPC-23 cell (rat dental papilla-derived cell), which is a rat odontoblast-like cell line, was cultured in DMEM. Subsequently, 0.1 mL of DMEM where the MDPC-23 cells were cultured was injected into each well in a microplate (96 wells) so that 1000 MDPC-23 cells were distributed into each well.
Next, the odontoblast proliferation/differentiation promoting agents of Examples 1 to 10 and ultrapure water (control) were individually added to corresponding wells. Then, the added mixture was allowed to stand at ordinary temperature (25° C.) for 5 days. Thereafter, the proliferation of the MDPC-23 cells was evaluated using a kit for measuring the number of living cells (CCK-8: Cell Counting Kit-8).
In the CCK-8 assay, a microplate reader (measurement wavelength: 450 nm) was used. The CCK-8 assay was repeated 6 times.
The results of the CCK-8 assay in Examples 1 to 5 and the control were shown in FIG. 3 and the results of the CCK-8 assay in Examples 4, 6 to 10 and the control were shown in FIG. 4.

[2] = tested on: human dental pulp stem cell (hDPSC); experiment: Calcification state of hDPSC culture (alkaline phosphatase measurement, alizarin red S staining); conditions: ALPase at 14, 21, 28 days (FIG. 8), alizarin red S at 30 and 32 days (FIGS. 9A, 9B)
Method: When DMEM containing the odontoblast proliferation/differentiation promoting agent of Example 12 and ultrapure water (control) therein was allowed to stand for 14, 21, and 28 days, the calcification state thus obtained was evaluated via alkaline phosphatase (ALPase) measurement.
Further, when DMEM containing the odontoblast proliferation/differentiation promoting agents of Example 12 and Comparative Examples 1 to 4 and ultrapure water (control) therein was allowed to stand for 30 and 32 days, the calcification state thus obtained was evaluated via alizarin red S staining measurement. The evaluation of the calcification state was performed using one-way ANOVA and Tukey's HSD post-hoc test with a significance level set at 1%

[3] = tested on: human dental pulp stem cell (hDPSC); experiment: Differentiation test of human dental pulp stem cells into odontoblasts (real-time PCR); conditions: sample 5% by mass, 24 days, FIGS. 7A to 7E; for odontoblast-specific genes (BSP, rOPN, rOCB, rDSPP, and rDMP-1) mRNA expression: β-actin internal standard
Method: A DMEM for culturing hDPSC was prepared in the same manner as in the measurement of cell survival rate. […] The concentration of the sample in each odontoblast proliferation/differentiation promoting agent was 5% by mass. • Calcium salt of […]: […] (Comparative Example 1), • Calcium hydroxide: CH (Comparative Example 2), • Mineral trioxide aggregate: […] As an internal standard, β-actin was used. mRNA expression levels of RNA-bone sialoprotein (BSP) are shown in FIG. 7A. mRNA expression levels of RNA-osteopontin (rOPN) are shown in FIG. 7B. mRNA expression levels of RNA-osteocalcin (rOCN) are shown in FIG. 7C. mRNA expression levels of RNA-dentin sialophosphoprotein (rDSPP) are shown in FIG. 7D. mRNA expression levels of RNA-dentin matrix protein (rDMP-1) are shown in FIG. 7E.

[4] = tested on: mesenchymal stem cell (MSC); experiment: Differentiation test of mesenchymal stem cells into odontoblasts (real-time PCR); conditions: MSC, 10, 17, and 24 days
Method: A DMEM for culturing mesenchymal stem cell (MSC) was prepared in the same manner as the measurement of cell survival rate, except that hDPSC was replaced with MSC.
Next, the odontoblast proliferation/differentiation promoting agent of Example 12 and ultrapure water (control) were individually dissolved directly in the DMEM for culturing MSC. Then, DMEM was subjected to real-time PCR when allowed to stand for 10, 17, and 24 days. As an internal standard, β-actin was used.
mRNA expression levels of RNA-bone sialoprotein (BSP) are shown in FIG. 8A. mRNA expression levels of RNA-dentin matrix protein (rDMP-1) are shown in FIG. 8B.

C=C(C)C(=O)OCCOC(=O)c1ccc(C(=O)[O-])c(C(=O)[O-])c1.[Ca+2] [C-MET, calcium salt of 4-methacryloyloxyethyltrimellitic acid]
effect of promoting proliferation and/or differentiation of the MDPC-23 cells ([1]; as the concentration of C-MET was increased to 500 μg/mL (Example 7)): gradually improved
effect of promoting proliferation and/or differentiation of the MDPC-23 cells ([1]; when the concentration of C-MET exceeded 500 μg/mL): not found any further improvement
calcification [2]: promoted
differentiation of hDPSC into odontoblasts [3]: promoted
odontoblast-specific genes (BSP, rOPN, rOCB, rDSPP, and rDMP-1) mRNA expression [3]: increased
differentiation of MSC into odontoblasts [4]: promoted
odontoblast-specific genes (BSP, rDMP-1) mRNA expression ([4]; β-actin internal standard): increased

[Ca+2].[OH-].[OH-] [CH, Calcium hydroxide, reference compound]
calcification [2]: calcification was found
differentiation of hDPSC into odontoblasts [3]: not observed
odontoblast-specific genes (BSP, rOPN, rOCB, rDSPP, and rDMP-1) mRNA expression [3]: no increase

[Ca+2].[Cl-].[Cl-] [CaCl2, Calcium chloride]
calcification [2]: calcification was found
